# Tests used:
# Format in all cases: in vivo, human
# [1] = tested on: APOE4+ patients with Alzheimer's disease; experiment: Phase 3 trials of tramiprosate, ADAS-Cog score, all APOE4+ patients; conditions: for ADAS-Cog Score Change over Standard of Care (Δ improvement vs control): All APOE4+ patients ≤85 years
# Procedure: (§1) The delta value in all of these tables is calculated by measuring the increase in score over baseline for each patient in a treatment group and obtaining the mean increase for such group and then subtracting that value from the mean increase in score over baseline for all patients in the placebo group. Thus, a positive delta value in these tables represents an improvement over the placebo group. Phase 3 human clinical trials of tramiprosate to treat Alzheimer's disease at doses of 100 mg BID and 150 mg BID for up to 78 weeks were run in both North America and Europe (1691 total patients enrolled). Placebos in both trials were treatment with donepezil either alone or in combination with memantine. ADAS-Cog scores and CDR-SB scores were obtained every 13 weeks for patients that remained in the trial. The patients were genotyped for APOE4 and the severity of their disease was measured using MMSE prior to the beginning of treatment. The data from both trials were merged for certain statistical analyses. […] We then performed additional subgroup analysis, subgrouping by APOE4 genotype/allele status (APOE4 heterozygous or APOE4 homozygous) and by disease severity (mild vs moderate) to determine if the number of c alleles and/or the severity of disease predicted a better outcome of tramiprosate therapy. […] In Table 1, *control treatment is donepezil either alone or in combination with memantine. Positive delta values quantitate the amount by which average increase in ADAS-Cog Score points above baseline for the control group exceeded the average increase in ADAS-Cog Score points above baseline for the treatment group.
# [2] = tested on: APOE4 heterozygous patients with Alzheimer's disease; experiment: Phase 3 trials of tramiprosate, CDR-SB score, heterozygous APOE4+ patients; conditions: Heterozygous APOE4+ patients ≤85 years
# Procedure: as §1, with “Table 4,” for “Table 1,”, “in CDR-SB” for “in ADAS-Cog”
# [3] = tested on: APOE4+ patients with Alzheimer's disease; experiment: Phase 3 trials of tramiprosate, CDR-SB score, all APOE4+ patients; conditions: for CDR-SB Score Change over Standard of Care (Δ improvement vs control): All APOE4+ patients ≤85 years
# Procedure: as §1, with “Table 2,” for “Table 1,”, “in CDR-SB” for “in ADAS-Cog”
# [4] = APOE4+ subgroup, both 100 mg and 150 mg treatment groups
# [5] = Mild (MMSE 20-26), 100 mg BID, 52 weeks
# [6] = Mild (MMSE 20-26), 100 mg BID, 65 weeks
# [7] = Mild (MMSE 20-26), 100 mg BID, 78 weeks
# [8] = Mild (MMSE 20-26), 150 mg BID, 52 weeks
# [9] = Mild (MMSE 20-26), 150 mg BID, 65 weeks
# [10] = Mild (MMSE 20-26), 150 mg BID, 78 weeks
# [11] = Mild-to-Moderate (MMSE 16-26), 100 mg BID, 52 weeks
# [12] = Mild-to-Moderate (MMSE 16-26), 100 mg BID, 65 weeks
# [13] = Mild-to-Moderate (MMSE 16-26), 100 mg BID, 78 weeks
# [14] = Mild-to-Moderate (MMSE 16-26), 150 mg BID, 52 weeks
# [15] = Mild-to-Moderate (MMSE 16-26), 150 mg BID, 65 weeks
# [16] = Mild-to-Moderate (MMSE 16-26), 150 mg BID, 78 weeks
# [17] = Moderate (MMSE 16-19), 100 mg BID, 52 weeks
# [18] = Moderate (MMSE 16-19), 100 mg BID, 65 weeks
# [19] = Moderate (MMSE 16-19), 100 mg BID, 78 weeks
# [20] = Moderate (MMSE 16-19), 150 mg BID, 52 weeks
# [21] = Moderate (MMSE 16-19), 150 mg BID, 65 weeks
# [22] = Moderate (MMSE 16-19), 150 mg BID, 78 weeks
structure (smiles),measurement,setting,value
"NCCCS(=O)(=O)O [Tramiprosate, 3-amino-1-propanesulfonic acid]",Effect on ADAS-Cog compared with the placebo,[1]; [4],statistically significant effect
same,ADAS-Cog Score Change over Standard of Care (Δ improvement vs control),[1]; [5],0.82 points
same,ADAS-Cog Score Change over Standard of Care (Δ improvement vs control),[1]; [6],0.99 points
same,ADAS-Cog Score Change over Standard of Care (Δ improvement vs control),[1]; [7],1.3 points
same,ADAS-Cog Score Change over Standard of Care (Δ improvement vs control),[1]; [8],0.17 points
same,ADAS-Cog Score Change over Standard of Care (Δ improvement vs control),[1]; [9],0.71 points
same,ADAS-Cog Score Change over Standard of Care (Δ improvement vs control),[1]; [10],0.27 points
same,ADAS-Cog Score Change over Standard of Care (Δ improvement vs control),[1]; [11],1.67 points
same,ADAS-Cog Score Change over Standard of Care (Δ improvement vs control),[1]; [12],1.82 points
same,ADAS-Cog Score Change over Standard of Care (Δ improvement vs control),[1]; [13],2.03 points
same,ADAS-Cog Score Change over Standard of Care (Δ improvement vs control),[1]; [14],0.95 points
same,ADAS-Cog Score Change over Standard of Care (Δ improvement vs control),[1]; [15],1.23 points
same,ADAS-Cog Score Change over Standard of Care (Δ improvement vs control),[1]; [16],0.77 points
same,ADAS-Cog Score Change over Standard of Care (Δ improvement vs control),[1]; [17],3.45 points
same,ADAS-Cog Score Change over Standard of Care (Δ improvement vs control),[1]; [18],3.45 points
same,ADAS-Cog Score Change over Standard of Care (Δ improvement vs control),[1]; [19],3.32 points
same,ADAS-Cog Score Change over Standard of Care (Δ improvement vs control),[1]; [20],2.52 points
same,ADAS-Cog Score Change over Standard of Care (Δ improvement vs control),[1]; [21],2.23 points
same,ADAS-Cog Score Change over Standard of Care (Δ improvement vs control),[1]; [22],1.57 points
same,CDR-SB Score Change over Standard of Care (Δ improvement vs control),[2]; [5],0.2 points
same,CDR-SB Score Change over Standard of Care (Δ improvement vs control),[2]; [6],0.3 points
same,CDR-SB Score Change over Standard of Care (Δ improvement vs control),[2]; [7],0.3 points
same,CDR-SB Score Change over Standard of Care (Δ improvement vs control),[2]; [8],0.1 points
same,CDR-SB Score Change over Standard of Care (Δ improvement vs control),[2]; [9],−0.1 points
same,CDR-SB Score Change over Standard of Care (Δ improvement vs control),[2]; [10],0 points
same,CDR-SB Score Change over Standard of Care (Δ improvement vs control),[2]; [11],0.5 points
same,CDR-SB Score Change over Standard of Care (Δ improvement vs control),[2]; [12],0.5 points
same,CDR-SB Score Change over Standard of Care (Δ improvement vs control),[2]; [13],0.6 points
same,CDR-SB Score Change over Standard of Care (Δ improvement vs control),[2]; [14],0.4 points
same,CDR-SB Score Change over Standard of Care (Δ improvement vs control),[2]; [15],0.3 points
same,CDR-SB Score Change over Standard of Care (Δ improvement vs control),[2]; [16],0.50 points
same,CDR-SB Score Change over Standard of Care (Δ improvement vs control),[2]; [17],1.00 points
same,CDR-SB Score Change over Standard of Care (Δ improvement vs control),[2]; [18],1.00 points
same,CDR-SB Score Change over Standard of Care (Δ improvement vs control),[2]; [19],1.00 points
same,CDR-SB Score Change over Standard of Care (Δ improvement vs control),[2]; [20],1.00 points
same,CDR-SB Score Change over Standard of Care (Δ improvement vs control),[2]; [21],1.1 points
same,CDR-SB Score Change over Standard of Care (Δ improvement vs control),[2]; [22],1.5 points
same,Effect on CDR-SB compared with the placebo,[3]; [4],statistically significant effect
same,CDR-SB Score Change over Standard of Care (Δ improvement vs control),[3]; [5],0.14 points
same,CDR-SB Score Change over Standard of Care (Δ improvement vs control),[3]; [6],0.34 points
same,CDR-SB Score Change over Standard of Care (Δ improvement vs control),[3]; [7],0.35 points
same,CDR-SB Score Change over Standard of Care (Δ improvement vs control),[3]; [8],0.16 points
same,CDR-SB Score Change over Standard of Care (Δ improvement vs control),[3]; [9],0.2 points
same,CDR-SB Score Change over Standard of Care (Δ improvement vs control),[3]; [10],0.18 points
same,CDR-SB Score Change over Standard of Care (Δ improvement vs control),[3]; [11],0.26 points
same,CDR-SB Score Change over Standard of Care (Δ improvement vs control),[3]; [12],0.5 points
same,CDR-SB Score Change over Standard of Care (Δ improvement vs control),[3]; [13],0.55 points
same,CDR-SB Score Change over Standard of Care (Δ improvement vs control),[3]; [14],0.44 points
same,CDR-SB Score Change over Standard of Care (Δ improvement vs control),[3]; [15],0.5 points
same,CDR-SB Score Change over Standard of Care (Δ improvement vs control),[3]; [16],0.6 points
same,CDR-SB Score Change over Standard of Care (Δ improvement vs control),[3]; [17],0.56 points
same,CDR-SB Score Change over Standard of Care (Δ improvement vs control),[3]; [18],0.83 points
same,CDR-SB Score Change over Standard of Care (Δ improvement vs control),[3]; [19],0.98 points
same,CDR-SB Score Change over Standard of Care (Δ improvement vs control),[3]; [20],1.00 points
same,CDR-SB Score Change over Standard of Care (Δ improvement vs control),[3]; [21],1.12 points
same,CDR-SB Score Change over Standard of Care (Δ improvement vs control),[3]; [22],1.53 points

# Source: patent US11191742B2, “Methods of treating neurodegenerative disorders in a particular population” (ALZHEON, INC., priority 2015, dated 2021)
